Source: PubChem BioAssay (NCI)
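Step 1: Grow cells in 96-well plates. Step 2: Expose to compound for 48 hours at 5 concentrations. Step 3: Interpolate endpoints linearly; if unreached, use highest concentration. Definition used: TGI = concentration required for complete inhibition of growth.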

Tests used:
Experiment in all cases: inhibition of tumour cell growth, NCI panel, 48 h
786-0 renal = tested on: 786-0 renal
A549 NSCLC = tested on: A549 NSCLC
ACHN renal = tested on: ACHN renal
CAKI-1 renal = tested on: CAKI-1 renal
CCRF-CEM leukemia = tested on: CCRF-CEM leukemia
COLO 205 colon = tested on: COLO 205 colon
DLD-1 colon = tested on: DLD-1 colon
DMS 114 small cell lung = tested on: DMS 114 small cell lung
DMS 273 small cell lung = tested on: DMS 273 small cell lung
EKVX NSCLC = tested on: EKVX NSCLC
HCC-2998 colon = tested on: HCC-2998 colon
HCT-116 colon = tested on: HCT-116 colon
HCT-15 colon = tested on: HCT-15 colon
HL-60(TB) leukemia = tested on: HL-60(TB) leukemia
HOP-18 NSCLC = tested on: HOP-18 NSCLC
HOP-62 NSCLC = tested on: HOP-62 NSCLC
HOP-92 NSCLC = tested on: HOP-92 NSCLC
HT29 colon = tested on: HT29 colon
IGROV1 ovarian = tested on: IGROV1 ovarian
K-562 leukemia = tested on: K-562 leukemia
KM12 colon = tested on: KM12 colon
KM20L2 colon = tested on: KM20L2 colon
LXFL 529 NSCLC = tested on: LXFL 529 NSCLC
M14 melanoma = tested on: M14 melanoma
M19-MEL melanoma = tested on: M19-MEL melanoma
MALME-3M melanoma = tested on: MALME-3M melanoma
MOLT-4 leukemia = tested on: MOLT-4 leukemia
NCI-H226 lung = tested on: NCI-H226 lung
NCI-H23 lung = tested on: NCI-H23 lung
NCI-H460 lung = tested on: NCI-H460 lung
NCI-H522 lung = tested on: NCI-H522 lung
OVCAR-3 ovarian = tested on: OVCAR-3 ovarian
OVCAR-4 ovarian = tested on: OVCAR-4 ovarian
OVCAR-5 ovarian = tested on: OVCAR-5 ovarian
OVCAR-8 ovarian = tested on: OVCAR-8 ovarian
SF-268 CNS = tested on: SF-268 CNS
SF-295 CNS = tested on: SF-295 CNS
SF-539 CNS = tested on: SF-539 CNS
SK-MEL-2 melanoma = tested on: SK-MEL-2 melanoma
SK-MEL-28 melanoma = tested on: SK-MEL-28 melanoma
SK-MEL-5 melanoma = tested on: SK-MEL-5 melanoma
SK-OV-3 ovarian = tested on: SK-OV-3 ovarian
SN12C renal = tested on: SN12C renal
SNB-19 CNS = tested on: SNB-19 CNS
SNB-75 CNS = tested on: SNB-75 CNS
SNB-78 CNS = tested on: SNB-78 CNS
SR leukemia = tested on: SR leukemia
SW-620 colon = tested on: SW-620 colon
TK-10 renal = tested on: TK-10 renal
U251 CNS = tested on: U251 CNS
UACC-257 melanoma = tested on: UACC-257 melanoma
UACC-62 melanoma = tested on: UACC-62 melanoma
UO-31 renal = tested on: UO-31 renal
A498 renal = tested on: A498 renal
BT-549 breast = tested on: BT-549 breast
DU-145 prostate = tested on: DU-145 prostate
HS 578T breast = tested on: HS 578T breast
LOX IMVI melanoma = tested on: LOX IMVI melanoma
MCF7 breast = tested on: MCF7 breast
MDA-MB-231 breast = tested on: MDA-MB-231 breast
MDA-MB-435 = tested on: MDA-MB-435
MDA-N = tested on: MDA-N
NCI/ADR-RES ovarian = tested on: NCI/ADR-RES ovarian
PC-3 prostate = tested on: PC-3 prostate
RPMI-8226 leukemia = tested on: RPMI-8226 leukemia
RXF 393 renal = tested on: RXF 393 renal
T-47D breast = tested on: T-47D breast
XF 498 CNS = tested on: XF 498 CNS

Measured: TGI

Cc1ccc2nc3cc(C)c(=O)cc-3sc2c1
45.2 µM: CCRF-CEM leukemia
84.9 µM: SNB-75 CNS
64.7 µM: HL-60(TB) leukemia
82.8 µM: UACC-62 melanoma
30.7 µM: M19-MEL melanoma
not listed: A498 renal | BT-549 breast | DU-145 prostate | HS 578T breast | LOX IMVI melanoma | MCF7 breast | MDA-MB-231 breast | MDA-MB-435 | MDA-N | NCI/ADR-RES ovarian | PC-3 prostate | RPMI-8226 leukemia | RXF 393 renal | T-47D breast | XF 498 CNS
> 100 µM: all other assays above

O=[N+]([O-])c1cc2ccc(N(CCO)CCO)nc2nc1N(CCO)CCO
not listed: DLD-1 colon | DMS 114 small cell lung | DMS 273 small cell lung | HOP-18 NSCLC | KM20L2 colon | LXFL 529 NSCLC | M19-MEL melanoma | SNB-78 CNS | XF 498 CNS
> 100 µM: all other assays above

Cc1ccc(S(=O)(=O)c2ccc(C)cc2[N+](=O)[O-])cc1
76.8 µM: SK-MEL-5 melanoma
73.3 µM: DMS 114 small cell lung
not listed: OVCAR-8 ovarian | BT-549 breast | DU-145 prostate | HS 578T breast | MCF7 breast | MDA-MB-231 breast | MDA-MB-435 | MDA-N | NCI/ADR-RES ovarian | PC-3 prostate | T-47D breast | XF 498 CNS
> 100 µM: all other assays above

Cc1c(C)c(C)c(-n2c(=O)n(C)c(=O)n2-c2cc(C(C)(C)C)cc(C(C)(C)C)c2O)c(C)c1C
24.5 µM: TK-10 renal
28.4 µM: SW-620 colon
28 µM: HOP-62 NSCLC | SK-MEL-28 melanoma
12 µM: PC-3 prostate
11.6 µM: RXF 393 renal
22.5 µM: HCT-15 colon
28.5 µM: CAKI-1 renal
> 46.9 µM: SR leukemia
22.7 µM: OVCAR-8 ovarian
31.9 µM: HS 578T breast
20.3 µM: SK-MEL-2 melanoma
17.6 µM: HOP-92 NSCLC
> 45.3 µM: KM12 colon
18.4 µM: HCT-116 colon
14.1 µM: UO-31 renal
19.3 µM: MOLT-4 leukemia | OVCAR-3 ovarian
24.6 µM: HCC-2998 colon
25.9 µM: DU-145 prostate | M14 melanoma
18.5 µM: SK-MEL-5 melanoma
17 µM: MDA-MB-231 breast
23.4 µM: NCI/ADR-RES ovarian
22.4 µM: 786-0 renal
14.6 µM: NCI-H522 lung
21.7 µM: SN12C renal
24.9 µM: MALME-3M melanoma
19.6 µM: U251 CNS
30.8 µM: CCRF-CEM leukemia
18.6 µM: T-47D breast
23.9 µM: UACC-257 melanoma
26.3 µM: A498 renal
27.1 µM: NCI-H460 lung
23.7 µM: UACC-62 melanoma
22.9 µM: MDA-N
29 µM: RPMI-8226 leukemia
16.6 µM: MCF7 breast
22 µM: IGROV1 ovarian
20.9 µM: SNB-19 CNS
27.7 µM: SF-268 CNS
28.1 µM: BT-549 breast
17.3 µM: A549 NSCLC
16.9 µM: SNB-75 CNS
27.2 µM: K-562 leukemia | MDA-MB-435
26.8 µM: LOX IMVI melanoma
20 µM: COLO 205 colon
25.2 µM: SK-OV-3 ovarian
24.3 µM: SF-539 CNS
11.4 µM: HL-60(TB) leukemia
15.9 µM: HT29 colon
21.2 µM: SF-295 CNS
22.8 µM: EKVX NSCLC
24.8 µM: ACHN renal
22.1 µM: NCI-H226 lung
26.9 µM: OVCAR-5 ovarian
21.4 µM: OVCAR-4 ovarian
24 µM: NCI-H23 lung

Cc1nc(N)nc(N)c1CCCc1ccccc1
71.7 µM: HL-60(TB) leukemia
86.1 µM: SK-MEL-28 melanoma
56.8 µM: HOP-62 NSCLC
39.2 µM: HCC-2998 colon
95.7 µM: MALME-3M melanoma
64.2 µM: M14 melanoma
51.9 µM: SN12C renal
46.6 µM: HOP-92 NSCLC
not listed: DMS 273 small cell lung | HOP-18 NSCLC | A498 renal | BT-549 breast | DU-145 prostate | HS 578T breast | MCF7 breast | MDA-MB-231 breast | MDA-MB-435 | MDA-N | NCI/ADR-RES ovarian | PC-3 prostate | RXF 393 renal | T-47D breast
> 100 µM: all other assays above

COC(=O)C(Cc1ccc(N(C)C)cc1)(NC(=O)c1ccccc1)P(=O)(OC)OC (stereo not given)
not listed: 786-0 renal | DLD-1 colon | HOP-18 NSCLC | MALME-3M melanoma | OVCAR-3 ovarian | SNB-78 CNS | BT-549 breast | DU-145 prostate | HS 578T breast | MCF7 breast | MDA-MB-231 breast | MDA-MB-435 | MDA-N | NCI/ADR-RES ovarian | PC-3 prostate | T-47D breast
> 100 µM: all other assays above

Nc1nc(SCc2ccccc2Cl)cc(C(=O)O)n1
89.2 µM: OVCAR-3 ovarian
not listed: DLD-1 colon | DMS 114 small cell lung | DMS 273 small cell lung | HOP-18 NSCLC | KM20L2 colon | LXFL 529 NSCLC | M19-MEL melanoma | MOLT-4 leukemia | SF-539 CNS | SNB-78 CNS | XF 498 CNS
> 100 µM: all other assays above
